Measured values taken from patent US11045833B2, “Task specific ionic liquid-impregnated polymeric surface coatings for antibacterial, antifouling, and metal scavenging activity” (Massachusetts Institute of Technology, priority 2017, dated 2021).

Columns and labels:
[1] = test system: Pseudomonas aeruginosa; test: Biofilm formation in flow cell with CVD polymer coating, inoculated medium flowed through; format: cell-based; conditions: IL encapsulated in CVD polymer film on flow cell; medium inoculated with P. aeruginosa
Text: Chemical vapor deposition (CVD) was used to cross-link a polymer and bind it to a flow cell surface using in a custom built vacuum reactor (Sharon Vacuum) previously described (Martin, T. P. et al. Biomaterials 2007, 28, 909-915; and Ozaydin-Ince, G. et al. J. Vac. Sci. Technol., A 2009, 27, 1135-1143). During CVD depositions, tert-butyl peroxide (TBPO) and monomers N,N-dimethylacrylamide ([…], FIG. 2A) and di(ethylene glycol) divinyl ether (DEGDVE, FIG. 2B) were introduced into the CVD reactor through mass flow controllers (1479 MFC, MKS Instruments). The grafting agent was trichlorovinylsilane (FIG. 2C), which covalently grafted the polymer network onto the surface via silanization. DMMA, which was the repeating unit in the polymer chains, was introduced into the chamber at a rate of about 2.8 mL/min. The crosslinker DEGDVE, which linked different polymer chains, was introduced into the chamber at a rate of 0.3 mL/min. The initiator TBPO was introduced into the chamber at a rate of about 1.0 mL/min. The substrate temperature was about 30° C., and the chamber pressure was about 400 mTorr. The ionic liquid was N-hexylethylenediaminium bis([…])amide, [HHex][Tf2N] (FIG. 1).
A flow cell had the bottom side CVD coated by the polymer as described in Example 2. One cell had the polymer film impregnated by an IL ([HHex][Tf2N]). […]

[2] = Ionic liquid leaching from ionogel by ICP mass spectrometry; format: physicochemical; conditions: IL trapped in ionogel
[3] = Desorption of polymer and ionic liquid from coated glass slides in water; format: physicochemical; conditions: after a day in water

N-hexylethylenediaminium bis(trifluoroethanesulfonyl)amide [[HHex][Tf2N]]
biofilm growth [1]: no biofilm growth | ionic liquid leaching over time [2]: lack of ionic liquid leaching over time | desorption of polymer and ionic liquid [3]: have not desorbed
